From PubChem BioAssay AID248 (DTP/NCI, 2004)
Several values for one entry are separate records, joined by “and”; a condition that tells them apart may be missing. Equal values may be shown once. Toxic doses and inconclusive results are not listed.

Tested on: L1210 leukemia ip in BDF1 mice, survival T/C
Test: NCI In Vivo Anticancer Drug Screen. Data for tumor model L1210 Leukemia (intraperitoneal) in B6D2F1 (BDF1) mice
Conditions: endpoint: mean survival time, higher = longer survival
Procedure, shortened: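 Antitumor effect is assessed in tumor-bearing animals. Survival in the compound arm is compared with a vehicle-dosed control arm and expressed as their quotient.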

[1] = dose: 100.0 mg/kg/injection, schedule: Q01DX009 (ip), vehicle: saline with Tween-80
[2] = dose: 200.0 mg/kg/injection, schedule: Q01DX009 (ip), vehicle: saline with Tween-80
[3] = dose: 400.0 mg/kg/injection, schedule: Q01DX009 (ip), vehicle: saline with Tween-80
[4] = dose: 100.0 mg/kg/injection, schedule: Q04DX003 (ip), vehicle: saline with Tween-80
[5] = dose: 200.0 mg/kg/injection, schedule: Q04DX003 (ip), vehicle: saline with Tween-80
[6] = dose: 400.0 mg/kg/injection, schedule: Q04DX003 (ip), vehicle: saline with Tween-80
[7] = dose: 100.0 mg/kg/injection, schedule: Q01DX009 (ip), vehicle: Klucel (hydroxypropylcellulose) (HPC)
[8] = dose: 200.0 mg/kg/injection, schedule: Q01DX009 (ip), vehicle: Klucel (hydroxypropylcellulose) (HPC)
[9] = dose: 400.0 mg/kg/injection, schedule: Q01DX009 (ip), vehicle: Klucel (hydroxypropylcellulose) (HPC)
[10] = dose: 6.25 mg/kg/injection, schedule: Q01DX009 (ip), vehicle: saline with Tween-80
[11] = dose: 12.5 mg/kg/injection, schedule: Q01DX009 (ip), vehicle: saline with Tween-80
[12] = dose: 100.0 mg/kg/injection, schedule: Q04DX003 (ip), vehicle: Klucel (hydroxypropylcellulose) (HPC)
[13] = dose: 200.0 mg/kg/injection, schedule: Q04DX003 (ip), vehicle: Klucel (hydroxypropylcellulose) (HPC)
[14] = dose: 400.0 mg/kg/injection, schedule: Q04DX003 (ip), vehicle: Klucel (hydroxypropylcellulose) (HPC)
[15] = dose: 50.0 mg/kg/injection, schedule: Q01DX001 (ip), vehicle: carboxymethylcellulose (CMC)
[16] = dose: 100.0 mg/kg/injection, schedule: Q01DX001 (ip), vehicle: saline with Tween-80
[17] = dose: 200.0 mg/kg/injection, schedule: Q01DX001 (ip), vehicle: saline with Tween-80
[18] = dose: 400.0 mg/kg/injection, schedule: Q01DX001 (ip), vehicle: saline with Tween-80

CC(C)(C)S(=O)(=O)C(C)(C)C
T/C [1]: 93 % of control | T/C [2]: 90 % of control | T/C [3]: 88 % of control

O=Cc1ccc(OC(=O)Nc2ccccc2)cc1
T/C [1]: 92 % of control | T/C [4]: 105 % of control | T/C [2]: 87 % of control | T/C [5]: 94 % of control | T/C [6]: 93 % of control

O=C(NCCCCCCNC(=O)Nc1ccccc1F)Nc1ccccc1F
T/C [7]: 100 % of control | T/C [8]: 89 % of control | T/C [9]: 92 % of control

Clc1c(CI)ccc(CI)c1Cl
T/C [10]: 100 % of control | T/C [11]: 92 % of control | T/C (dose: 25.0 mg/kg/injection, schedule: Q01DX009 (ip), vehicle: Klucel (hydroxypropylcellulose) (HPC)): 93 % of control | T/C (dose: 25.0 mg/kg/injection, schedule: Q01DX009 (ip), vehicle: saline with Tween-80): 92 % of control | T/C (dose: 50.0 mg/kg/injection, schedule: Q01DX009 (ip), vehicle: Klucel (hydroxypropylcellulose) (HPC)): 108 % of control | T/C (dose: 50.0 mg/kg/injection, schedule: Q01DX009 (ip), vehicle: saline with Tween-80): 89 % of control | T/C [12]: 89 % of control

Cc1nc(-c2ccccc2)nc2c1CCO2
T/C [1]: 100 % of control | T/C [2]: 107 % of control

COC(=O)CCCCC(=O)OCC#CC#CCOC(=O)CCCCC(=O)OC
T/C [7]: 95 % of control | T/C [12]: 91 % of control | T/C [8]: 104 % of control | T/C [13]: 92 % of control | T/C [9]: 98 % of control | T/C [14]: 92 % of control

CC(C)(Br)C(=O)c1ccco1
T/C [1]: 95 % of control

ClCC1(CCl)OCCO1
T/C (dose: 75.0 mg/kg/injection, schedule: Q01DX001 (ip), vehicle: carboxymethylcellulose (CMC)): 95 % of control | T/C (dose: 150.0 mg/kg/injection, schedule: Q01DX001 (ip), vehicle: carboxymethylcellulose (CMC)): 104 % of control

O=C(CI)Nc1ccc(O)c2ccccc12
T/C (dose: 3.12 mg/kg/injection, schedule: Q04DX003 (ip), vehicle: water): 111 % of control and 86 % of control | T/C (dose: 6.25 mg/kg/injection, schedule: Q01DX009 (ip), vehicle: water): 99 % of control | T/C (dose: 6.25 mg/kg/injection, schedule: Q04DX003 (ip), vehicle: water): 121 % of control and 91 % of control | T/C (dose: 12.5 mg/kg/injection, schedule: Q01DX009 (ip), vehicle: water): 86 % of control | T/C (dose: 75.0 mg/kg/injection, schedule: Q04DX003 (ip), vehicle: water): 93 % of control

O=S(=O)(Cc1ccccc1)CC(Cl)c1ccccc1 (stereo not drawn)
T/C (dose: 100.0 mg/kg/injection, schedule: Q01DX001 (ip), vehicle: Klucel (hydroxypropylcellulose) (HPC)): 98 % of control | T/C [12]: 97 % of control | T/C (dose: 200.0 mg/kg/injection, schedule: Q01DX001 (ip), vehicle: Klucel (hydroxypropylcellulose) (HPC)): 98 % of control | T/C [13]: 101 % of control | T/C (dose: 400.0 mg/kg/injection, schedule: Q01DX001 (ip), vehicle: Klucel (hydroxypropylcellulose) (HPC)): 104 % of control | T/C [14]: 92 % of control

CCCOCC(O)CNCCN (stereo not drawn)
T/C [7]: 98 % of control | T/C [8]: 92 % of control

CC(C)CNS(=O)(=O)c1ncnc2nc[nH]c12
T/C (dose: 6.0 mg/kg/injection, schedule: Q01DX Z (ip), vehicle: carboxymethylcellulose (CMC)): 103 % of control | T/C (dose: 12.0 mg/kg/injection, schedule: Q01DX Z (ip), vehicle: carboxymethylcellulose (CMC)): 100 % of control | T/C (dose: 25.0 mg/kg/injection, schedule: Q01DX Z (ip), vehicle: carboxymethylcellulose (CMC)): 106 % of control | T/C (dose: 50.0 mg/kg/injection, schedule: Q01DX Z (ip), vehicle: carboxymethylcellulose (CMC)): 92 % of control

O=NN1C(=O)C2CC3CC(C2)CC1C3
T/C (dose: 3.12 mg/kg/injection, schedule: Q01DX009 (ip), vehicle: saline with Tween-80): 91 % of control | T/C [10]: 107 % of control | T/C [11]: 96 % of control

CN(C)C1C(=O)C(C(N)=O)=C(O)C2(O)C(=O)C3=C(O)c4c(O)cccc4C(C)(O)C3C(O)C12 (stereo not drawn)
T/C (dose: 19.5 mg/kg/injection, schedule: Q01DX Z (ip), vehicle: carboxymethylcellulose (CMC)): 94 % of control | T/C (dose: 39.0 mg/kg/injection, schedule: Q01DX Z (ip), vehicle: carboxymethylcellulose (CMC)): 91 % of control | T/C (dose: 50.0 mg/kg/injection, schedule: Q01DX001 (ip), vehicle: saline): 93 % of control | T/C (dose: 50.0 mg/kg/injection, schedule: Q01DX Z (ip), vehicle: water): 117 % of control | T/C (dose: 78.0 mg/kg/injection, schedule: Q01DX Z (ip), vehicle: carboxymethylcellulose (CMC)): 89 % of control | T/C (dose: 100.0 mg/kg/injection, schedule: Q01DX001 (ip), vehicle: saline): 90 % of control | T/C (dose: 100.0 mg/kg/injection, schedule: Q01DX Z (ip), vehicle: water): 119 % of control | T/C (dose: 156.0 mg/kg/injection, schedule: Q01DX Z (ip), vehicle: carboxymethylcellulose (CMC)): 98 % of control | T/C (dose: 200.0 mg/kg/injection, schedule: Q01DX001 (ip), vehicle: saline): 95 % of control | T/C (dose: 400.0 mg/kg/injection, schedule: Q01DX001 (ip), vehicle: saline): 101 % of control

CC(=O)Nc1cc(C)ns1
T/C [15]: 104 % of control | T/C (dose: 100.0 mg/kg/injection, schedule: Q01DX001 (ip), vehicle: carboxymethylcellulose (CMC)): 104 % of control | T/C (dose: 200.0 mg/kg/injection, schedule: Q01DX001 (ip), vehicle: carboxymethylcellulose (CMC)): 101 % of control | T/C (dose: 400.0 mg/kg/injection, schedule: Q01DX001 (ip), vehicle: carboxymethylcellulose (CMC)): 98 % of control

COC1OC2COc3ccccc3OC2C2C1N2C(N)=O (stereo not drawn)
T/C (dose: 100.0 mg/kg/injection, schedule: Q04DX002 (ip), vehicle: Klucel (hydroxypropylcellulose) (HPC)): 104 % of control | T/C (dose: 200.0 mg/kg/injection, schedule: Q04DX002 (ip), vehicle: Klucel (hydroxypropylcellulose) (HPC)): 96 % of control | T/C (dose: 400.0 mg/kg/injection, schedule: Q04DX002 (ip), vehicle: Klucel (hydroxypropylcellulose) (HPC)): 100 % of control

Cn1c2nc3ccccc3c-2nc2ccccc21
T/C [4]: 91 % of control | T/C [5]: 94 % of control | T/C [6]: 86 % of control

Cc1ccc(Cl)cc1NC(=O)N1CCN(c2ccccc2)CC1
T/C [16]: 95 % of control | T/C [1]: 98 % of control and 103 % of control | T/C (dose: 100.0 mg/kg/injection, schedule: Q04DX002 (ip), vehicle: saline with Tween-80): 120 % of control | T/C (dose: 100.0 mg/kg/injection, schedule: Q04DX003 (ip), vehicle: saline): 101 % of control | T/C [17]: 87 % of control | T/C [2]: 100 % of control and 102 % of control | T/C (dose: 200.0 mg/kg/injection, schedule: Q04DX002 (ip), vehicle: saline with Tween-80): 98 % of control and 86 % of control | T/C (dose: 200.0 mg/kg/injection, schedule: Q04DX003 (ip), vehicle: saline): 90 % of control | T/C [18]: 100 % of control | T/C [3]: 92 % of control | T/C (dose: 400.0 mg/kg/injection, schedule: Q04DX002 (ip), vehicle: saline with Tween-80): 95 % of control and 89 % of control | T/C (dose: 400.0 mg/kg/injection, schedule: Q04DX003 (ip), vehicle: saline): 95 % of control

O=C(O)c1ccccc1Cc1cccs1
T/C [16]: 98 % of control | T/C [17]: 95 % of control | T/C [18]: 92 % of control

O=C(CN1CC1)Nc1ccc(NC(=O)CN2CC2)cc1
T/C (dose: 1.5 mg/kg/injection, schedule: Q01DX009 (ip), vehicle: carboxymethylcellulose (CMC)): 116 % of control and 117 % of control | T/C (dose: 7.3 mg/kg/injection, schedule: Q01DX001 (ip), vehicle: carboxymethylcellulose (CMC)): 116 % of control | T/C (dose: 11.0 mg/kg/injection, schedule: Q01DX009 (ip), vehicle: carboxymethylcellulose (CMC)): 168 % of control | T/C (dose: 11.1 mg/kg/injection, schedule: Q01DX009 (ip), vehicle: carboxymethylcellulose (CMC)): 161 % of control | T/C (dose: 16.6 mg/kg/injection, schedule: Q01DX009 (ip), vehicle: carboxymethylcellulose (CMC)): 96 % of control and 211 % of control | T/C (dose: 25.0 mg/kg/injection, schedule: Q01DX001 (ip), vehicle: carboxymethylcellulose (CMC)): 152 % of control and 160 % of control | T/C (dose: 25.0 mg/kg/injection, schedule: Q01DX009 (ip), vehicle: carboxymethylcellulose (CMC)): 103 % of control | T/C (dose: 37.5 mg/kg/injection, schedule: Q01DX001 (ip), vehicle: carboxymethylcellulose (CMC)): 163 % of control | T/C [15]: 151 % of control
